Results as given in patent US6667173B2, “Nucleic acids encoding platelet derived growth factor-alpha receptors” (The Schepens Eye Research Institute, priority 2000, dated 2003).
Entries after “also recorded” stand apart in the source; their conditions may differ.

What was measured:
[1] = test system: F cells; assay: Collagen gel contraction assay of F cells expressing αPDGFR mutants; format: cell-based, mouse; details: PDGF-BB (50 ng/ml), 48 hours
Protocol: The contraction assay was based on a previously described reference, Skuta, G. et al. (1999) J. Biol. Chem. 274:30163, with the following modifications. Fα cells were suspended in 1.5 mg/ml of neutralized collagen I (Cohesion vitrogen 100, Palo Alto, Calif.) at a density of 10^6 cells/ml, and were transferred into the 24-well plate (Falcon, Franklyn Lakes, N.J.) that had been preincubated with phosphate-buffer saline (PBS) with 5 mg/ml of bovine serum albumin (BSA) overnight. The gel was solidified by incubating at 37° C. for 90 minutes, and then the well was flooded with DMEM+5 mg/ml of BSA supplemented with an amount of vitreous such that the final concentration of vitreous in the culture medium was 1, 5 or 20%. The gels were incubated at 37° C. with 5% CO2. The initial gel diameter was 15 mm. The media was replaced every 24 hours and the gel diameter was measured after 48 hours. The extent of contraction was calculated by subtracting the diameter of the well at 48 hours from the initial diameter (15 mm). Each experimental condition was assayed in triplicate, and at least three independent experiments were performed. Unpaired t-test was performed to detect statistic difference in contraction assay.
To determine the signaling pathways that drive contraction, cells expressing the αPDGFR mutants were subjected to the collagen gel contraction assay described above. Accordingly, F cells expressing the indicated αPDGFRs were subjected to the collagen gel assay in the presence of buffer, PDGF-BB (50 ng/ml), TGFβ1 (1 ng/ml), or FBS (10%). The data presented are the mean±standard deviation measured at the 48 hours time point. Each experimental condition was assayed in triplicate, and at least 3 independent experiments were performed.

[2] = test system: SHP-2; assay: Co-immunoprecipitation of SHP-2 with αPDGFR mutants in F cells; format: cell-based, mouse; details: 50 ng/ml PDGF-BB, 5 minutes
Protocol: (§1) The ability of the αPDGFR mutants to undergo ligand dependent tyrosine phosphorylation and to associate with signaling enzymes was then tested. F cells expressing various αPDGFR mutants were grown to subconfluence and serum starved overnight. Cells were either left resting (−) or stimulated with 50 ng/ml PDGF-BB (+) for 5 minutes, and lysed. The αPDGFR was immunoprecipitated with αPDGFR antibody, as described above, and the resulting immunoprecipitates were resolved by 7.5% SDS-PAGE and transferred onto Immobilon. The segment of the blot containing the αPDGFR was first blotted with anti-phosphotyrosine antibodies, then stripped and reprobed with an anti-αPDGFR antibody. Portions of the membrane that contained the proteins of the appropriate molecular mass were immunoblotted for PLCγ, the regulatory subunit of PI3K (p85), or SHP-2. Crude rabbit anti-p85 antibody is from Dr. A. Toker (Beth Israel Hospital/Harvard Medical School, Boston, Mass.). The monoclonal antibodies against PLCγ and SHP-2 were purchased from Upstate Biotechnology Inc.

[3] = test system: rabbit eyes; details: previously found (Rosenkranz et al. 2000); cited from earlier work
[4] = test system: PLCγ; assay: Co-immunoprecipitation of PLCγ with αPDGFR mutants in F cells; format: cell-based, mouse; details: 50 ng/ml PDGF-BB, 5 minutes
Protocol: as §1

[5] = test system: PI3K (p85); assay: Co-immunoprecipitation of the regulatory subunit of PI3K (p85) with αPDGFR mutants in F cells; format: cell-based, mouse; details: 50 ng/ml PDGF-BB, 5 minutes
Protocol: as §1

[6] = test system: Src family kinases; details: cited from earlier work

Substance: F72/74: αPDGFR mutant, Tyr to Phe substitution at 572 and 574
- PDGF-dependent contraction [1]: no effect on contraction
- recruitment of SHP-2 (Properties) [2]: bind all of these signaling enzymes
- potential to induce PVR [3]: induced PVR with slightly accelerated kinetics
- recruitment or activation of PLCγ (Properties) [4]: bind all of these signaling enzymes
- recruitment of PI3K / p85 (Properties) [5]: bind all of these signaling enzymes
- recruitment or activation of Src family kinases (Properties) [6]: selectively fails to associate with Src family kinases; also recorded: Fails to recruit or activate
